From patent US20190327975A1, “AN ANTIMICROBIAL COMPOSITION” (Conopco, Inc., d/b/a UNILEVER, priority 2016, published 2019)

Excerpt: More particularly, silver ion solubility [Ag+], a value given in mol/L may be calculated using the formula: […]

- Silver Ion Solubility [Ag+]: 13 µM
Structure (SMILES): [Cl][Ag] [Silver chloride]
